Several values for one entry are separate records, joined by “and”; a condition that tells them apart may be missing. Equal values may be shown once.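 Five compound concentrations were applied to cells in 96-well plates for 48 hours; endpoints were derived by simple linear interpolation of the resulting dose-response curve. Here, GI50 denotes the concentration required for 50% inhibition of growth. TGI: concentration producing complete growth inhibition.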
What was measured:
Experiment in all cases: NCI anticancer screen, dose series, 48 h
786-0 renal = tested on: 786-0 renal
BT-549 breast = tested on: BT-549 breast
HS 578T breast = tested on: HS 578T breast
NCI-H226 lung = tested on: NCI-H226 lung
OVCAR-8 ovarian = tested on: OVCAR-8 ovarian
PC-3 prostate = tested on: PC-3 prostate
SK-MEL-2 melanoma = tested on: SK-MEL-2 melanoma
SK-OV-3 ovarian = tested on: SK-OV-3 ovarian
SN12C renal = tested on: SN12C renal
SNB-19 CNS = tested on: SNB-19 CNS

SMILES	TGI (786-0 renal)	TGI (BT-549 breast) [µM]	TGI (HS 578T breast) [µM]	GI50 (NCI-H226 lung) [nM]	TGI (NCI-H226 lung)	GI50 (OVCAR-8 ovarian) [µM]	TGI (OVCAR-8 ovarian)	GI50 (PC-3 prostate) [µM]	TGI (PC-3 prostate)	GI50 (SK-MEL-2 melanoma) [µM]	TGI (SK-MEL-2 melanoma) [µM]	TGI (SK-OV-3 ovarian) [µM]	GI50 (SN12C renal) [µM]	TGI (SN12C renal)	GI50 (SNB-19 CNS) [µM]	TGI (SNB-19 CNS)	GI50 (786-0 renal) [µM]	GI50 (BT-549 breast) [µM]	GI50 (HS 578T breast) [µM]	GI50 (SK-OV-3 ovarian) [nM]
CCN(CC)CCC(=O)O[C@H]1CC[C@H](CC(C)[C@H]2CC(=O)C(C)C=C(C)[C@H](OC(=O)CCN(CC)CC)C(OC)C(=O)[C@@H](C)CC(C)/C=C/C=C/C=C(C)C(OC)CC3CC[C@H](C)[C@](O)(O3)C(=O)C(=O)N3CCCCC3C(=O)O2)CC1OC (stereo not given in full)	2.47 µM and 1.72 µM	0.946	2.28	1210	3.68 µM and 3.34 µM	0.00624	3.49 µM and 2.21 µM	1.22	2.57 µM and 2.4 µM	0.359	1.91	5.53	1.42	4.28 µM and 2.17 µM	0.0358	7.68 µM and 2.24 µM				
O=C1COCCN1c1ccc(NCc2cn(C(=O)c3ccc(Cl)cc3)c3ccccc23)cc1	> 100 µM	53.7	39.1	159	0.543 µM	5.04	> 100 µM	4.78	49.5 µM	2.19	15.3	92.1	4.96	69.3 µM	20.8	> 100 µM	2.7	4.37	3.86	2270
CC(=O)n1c(-c2ccc(Cl)c(Cl)c2)cn(-c2ccc(Cl)cc2)c1=O	32.9 µM	36.6	36.5	24300	74.5 µM	23.1	76.5 µM	26.6	> 100 µM	22.4	69.2	44.1	31.8	> 100 µM	13.4	40.7 µM	13.4	17	15.5	19200
O=c1[nH]nc(-c2ccccc2)c2c(-c3ccccc3)onc12	> 100 µM	> 47.8	1.37	> 21000	> 100 µM	0.812	> 100 µM	2.12	> 100 µM		> 100	53.6	0.748	> 100 µM	11.2	> 100 µM	5.47	0.506	0.255	981
O=C(NN1C(=O)CSC12CCC(c1ccccc1)CC2)c1[nH]c2ccc(F)cc2c1-c1ccccc1 (stereo not given)	33.8 µM	34.8	52.3	19200	38.6 µM	17.8	36.5 µM	18.1	39.6 µM	17.6	33.2	> 100	17.6	31.8 µM	29.8	> 100 µM	16.4	19.9	21.4	37700
NCCSC(C[N+](=O)[O-])c1ccccc1Cl (stereo not given)	4.33 µM	4.26	7.63	2280	5.55 µM	6.43	23.8 µM	4.19	> 32.7 µM	21.9	51.5	24	7.33	21.9 µM	3.38	11.5 µM	2.16	2.03	2.46	11700
Clc1ccc(/C=C/c2nc(Cl)c(-c3ccc(Cl)cc3)c(Cl)n2)cc1	> 100 µM	> 100	> 100		> 100 µM		> 100 µM		> 100 µM		> 100	> 100		> 100 µM		> 100 µM				
CCc1nc(N)nc(N)c1C#CC(C)c1cc(-c2ccnc(C)c2)c2oc(C)nc2c1 (stereo not given)	5.54 µM	8.31	13.9	913	11.2 µM	< 0.01	47.1 µM	< 0.01	12.1 µM	1.9	10.6	8.53	< 0.0145	11.4 µM	< 0.0114	12.1 µM	< 0.01	1.03	1.5	113
Cc1cc(Cl)ccc1Nc1nc(C(F)(F)F)ccc1C(=O)Nc1cccc(C(F)(F)F)c1	12.9 µM	15.7	20.2	4050	17.6 µM	4.32	22.7 µM	3.63	15.5 µM	3.23	13.3	10.8	3.23	11.6 µM	4.45	15.8 µM	3.61	3.76	3.95	2440
COc1cc2nncc(SCc3ccc(Cl)c(Cl)c3)c2cc1OC	> 100 µM	> 100	> 100		> 100 µM		> 100 µM		> 100 µM		> 100	> 100		> 100 µM		> 100 µM				

— PubChem BioAssay (NCI)
